Assay results published in paper PMC6222672, “Pharmacokinetic and Metabolism Studies of 12-Riboside-Pseudoginsengenin DQ by UPLC-MS/MS and UPLC-QTOF-MS^E” (Molecules : A Journal of Synthetic Chemistry and Natural …, 2018).
Read-outs that look alike come from different tables or passages of the source.

Experiments:
[1] = cited from earlier work
[2] = Metabolite identification in rat plasma, bile, urine and feces by UPLC-QTOF-MSE; format: in vivo; details: rats, RPDQ 48 mg/kg i.g.
Experimental: For a metabolism study, RPDQ (48 mg/kg, i.g.) was administered to obtain a high concentration of metabolites. […] The pooled plasma sample (500 μL) was then added with methanol (2 mL) to vortex and precipitate proteins. Subsequently, the mixtures were centrifuged (10,000 rpm, 4 °C, 10 min) to obtain the supernatant, which was then evaporated by N2 to obtain the residue. Methanol (100 μL) was used to reconstitute the residue. In order to obtain bile samples, rats were anaesthetized with urethane (1.0 g/kg, intraperitoneal injection). After making an abdominal incision, the bile was collecting by surgically inserting a plastic cannula into the bile ducts. Prior to administration, blank bile was collected for 2 h. After administration, bile samples were collected for 12 h. By using metabolism cages, blank and dosed urine and feces samples were also collected prior to administration or 24 h after administration. After diluting each urine or bile sample (300 μL) with 1 mL of methanol, the mixture was centrifuged (10,000 rpm, 4 °C, 10 min) to obtain the supernatant, which was then evaporated by N2 to obtain the dried urine or bile residue. Methanol (50 μL) was then used to dissolve each residue. After centrifuging (10,000 rpm, 4 °C, 10 min), the clear supernatants were used for the analysis. […] Metabolic characterization of RPDQ was analyzed using UNIFI 1.7.0 software (Waters, Manchester, UK).

[3] = format: in vitro ADME; details: rat, 100 ng/mL
Experimental: RPDQ and 20R-panaxadiol stock methanol solutions (1.00 mg/mL) were all prepared with the reference compounds, respectively. Firstly, blank rat plasma was prepared. The blood samples were collected immediately from the abdominal aorta and incubated at 37 °C for 30 min. The plasma was separated by centrifugation at 4000 rpm for 15 min, and was frozen at −20 °C until analysis. By spiking the dilute solutions with blank rat plasma, calibration curves were plotted to produce the points equivalent to 5, 10, 25, 50, 100, 300, 500, and 1000 ng/mL for RPDQ. […] All the QC and calibration standards samples were prepared freshly before analysis. The specificity, linearity, LLOQ, precision and accuracy, extraction recovery, matrix effect, diluted reliability, and stability of the method were validated by following a non-clinical drug pharmacokinetic study technical guideline (China Food And Drug Administration 2014) and the Bioanalytical Method Validation Guideline (Chinese Pharmacopoeia 2015, Vol. 4). Specificity was assessed by comparing blank plasma samples, plasma was spiked with RPDQ and 20R-panaxadiol, and plasma samples were collected after administration. Linearity was analyzed through weighted regression (1/x^2) of peak area ratios (y) of RPDQ to 20R-panaxadiol versus nominal concentration (x) in plasma. […] The intra- and inter-day precision and accuracy were evaluated with the analysis of six replicate QC samples on three consecutive days, respectively. The extraction recovery and matrix effect at three QC concentrations were assayed. By comparing peak areas of RPDQ and 20R-panaxadiol in extracted QC samples with those in post-extracted blank plasma samples, the recoveries were calculated. Moreover, by comparing the peak area of samples spiked after extraction with that of the neat solution’s equivalent concentration, the matrix effect was then evaluated. Stability was evaluated by analyzing replicate QC samples, which were stored at −20 °C for two weeks at room temperature for 4 h, and experienced three freeze/thaw cycles (from −20 °C to room temperature) on consecutive days. The stabilities of RPDQ in stock solutions at 15 °C and stored in plastic autosampler vials for 16 h at 10 °C were also assessed. Five-fold higher concentrations of QC were achieved by adding moderate RPDQ to blank plasma. The samples were then diluted and analyzed with undiluted calibration standards. The accuracy and precision were within acceptable limits (± 15%).

[4] = after intragastric administration

For `CC(C)=CCC[C@](C)(O[C@@H]1O[C@H](CO[C@@H]2OC[C@@H](O)[C@H](O)[C@H]2O)[C@@H](O)[C@H](O)[C@H]1O)[C@H]1CC[C@]2(C)[C@@H]1[C@H](O)C[C@@H]1[C@@]3(C)CC[C@H](O[C@@H]4O[C@H](CO)[C@@H](O)[C@H](O)[C@H]4O[C@@H]4O[C@H](CO)[C@@H](O)[C@H](O)[C@H]4O)C(C)(C)[C@@H]3CC[C@]12C` [Rb3], the bioavailability [1, 4] is listed as 0.52% and the “biological half time (t1/2)” value [1, 4] is listed as 21.1 h.
For `CC(C)=CCC[C@](C)(O[C@@H]1O[C@H](CO)[C@@H](O)[C@H](O)[C@H]1O)[C@H]1CC[C@]2(C)[C@@H]1[C@H](O)C[C@@H]1[C@@]3(C)CC[C@H](O)C(C)(C)[C@@H]3CC[C@]12C` [CK, Ginsenoside CK], the bioavailability [1, 4] is listed as 4.30%.
For `CC(C)=CCCC(C)(O)C1CCC2(C)C1C(O)CC1C3(C)CCC(O)C(C)(C)C3CCC12C` (stereo not shown) [protopanaxdiol], the “bioavailability (F)” value ([1]; rat, in vivo, po) is given as 36.8% and the “elimination half-life (t1/2)” value ([1]; rat, in vivo, po) is given as 1.48 h.
For `CC(C)=CCC[C@](C)(O[C@@H]1O[C@H](CO)[C@@H](O)[C@H](O)[C@H]1O)[C@H]1CC[C@]2(C)[C@@H]1[C@H](O)C[C@@H]1[C@@]3(C)CC[C@H](O)C(C)(C)[C@@H]3[C@@H](O[C@@H]3O[C@H](CO)[C@@H](O)[C@H](O)[C@H]3O)C[C@]12C` [Rg1], the bioavailability [1, 4] is listed as 1.33%.
For `CC(C)=CCC[C@](C)(O[C@@H]1O[C@H](CO[C@@H]2O[C@H](CO)[C@@H](O)[C@H](O)[C@H]2O)[C@@H](O)[C@H](O)[C@H]1O)[C@H]1CC[C@]2(C)[C@@H]1[C@H](O)C[C@@H]1[C@@]3(C)CC[C@H](O[C@@H]4O[C@H](CO)[C@@H](O)[C@H](O)[C@H]4O[C@@H]4O[C@H](CO)[C@@H](O)[C@H](O)[C@H]4O)C(C)(C)[C@@H]3CC[C@]12C` [Rb1, Ginsenosides Rb1], the bioavailability [1, 4] is given as 0.78% and the “biological half time (t1/2)” value [1, 4] is given as 9.8 h.
In the case of `CC(C)=CCC[C@](C)(O)[C@H]1CC[C@]2(C)[C@@H]1[C@H](O)C[C@@H]1[C@@]3(C)CC[C@H](O)C(C)(C)[C@@H]3[C@@H](O[C@@H]3O[C@H](CO)[C@@H](O)[C@H](O)[C@H]3O)C[C@]12C` [Rh1], the bioavailability [1, 4] is given as 1.01% and the t1/2 [1, 4] is given as 25.8 min.
For `CC(C)=CCC[C@](C)(O[C@@H]1O[C@H](CO[C@@H]2OC[C@H](O)[C@H](O)[C@H]2O)[C@@H](O)[C@H](O)[C@H]1O)[C@H]1CC[C@]2(C)[C@@H]1[C@H](O)C[C@@H]1[C@@]3(C)CC[C@H](O[C@@H]4O[C@H](CO)[C@@H](O)[C@H](O)[C@H]4O[C@@H]4O[C@H](CO)[C@@H](O)[C@H](O)[C@H]4O)C(C)(C)[C@@H]3CC[C@]12C` [Rb2], the bioavailability [1, 4] is listed as 0.08% and the “biological half time (t1/2)” value [1, 4] is listed as 23.1 h.
In the case of `CC1(C)C(O)CCC2(C)C1CCC1(C)C2CC(O)C2C([C@]3(C)CC[C@@H](C(C)(C)O)O3)CC[C@]21C` (stereo partly shown) [pseudoginsengenin DQ], the “biological half time (t1/2)” value [1, 4] is listed as 5.97 h and the “Source (samples in which detected: plasma, bile, feces, urine)” value [2] is listed as “P,B, F,U”.
With `CC1(C)CCCC(C)(C2CC[C@]3(C)C2C(O)CC2C4(C)CCC(O)C(C)(C)C4CCC23C)O1` (stereo partly drawn) [IS, 20R-panaxadiol, reference compound] the Mean concentration [3] was 94.11 ± 3.47 ng/mL, the Accuracy ([3]; 3 freeze-thaw cycles) was −5.89% and the Accuracy ([3]; 4 h) was −7.66%. The Mean concentration ([3]; 4 h) was 92.34 ± 3.12 ng/mL, the Accuracy ([3]; 16 h) was −8.66% and the Mean concentration ([3]; 16 h) was 91.34 ± 2.31 ng/mL. For the same compound, the Accuracy ([3]; 14 d) was −5.26% and the Mean concentration ([3]; 14 d) was 94.74 ± 4.25 ng/mL.
